The data set can be described thus: Non-clinical bridging studies of toxicity, PK and local tolerability. The conditions noted are these: in vivo. From the text: In addition, the FluidCrystal® vehicle and the excipient glycerol dioleate have been evaluated.

Each structure is given as a SMILES string.

As for `CCCCCCCC/C=C\CCCCCCCC(=O)OCC(CO)OC(=O)CCCCCCC/C=C\CCCCCCCC` (stereo not shown) [glycerol dioleate], the “main effects observed in non-clinical studies” value is reported as “reversible injection-site reactions”.

The values are drawn from patent publication US20250281569A1, “COMPOSITIONS AND METHODS FOR TREATING NEUROENDOCRINE TUMORS” (CAMURUS AB, priority 2021, published 2025).
